From US20100081693A1, “T[…] AND USE THEREOF” (priority 2006, published 2010) come the findings set out here.

Type in all cases: in vivo
The test system of assay [1] is tobacco whitefly. Briefly: Test Example 3: spray test on tobacco whitefly larvae on cabbage. The conditions noted are these: 168 h, sprayed on cabbage at 20 ml/cup, hatched larvae, seven days after spraying, read-out: Controlling value (%).
Assay [2] relates to Tetranychus urticae. Briefly: Test Example 4: spray test on Tetranychus urticae on vineless common bean. The following applies: 192 h, read-out: Controlling rate (%). The procedure: Each of present compounds (1) to (3), (5), (17), (39), (55) to (57), (120) to (124), (129), (130), (135), (136), (139) to (141), (232), (236), (243), (255), (262), and the comparative compound (A) was formulated into a preparation according to Preparation Example 5. This preparation was diluted with water so that the concentration of the present compound or the comparative compound (A) became 500 ppm.
Meanwhile, about 60 Tetranychus urticae female imagoes were released on a vineless common bean plantlet (7 days after seeding, first leaf development phase) planted in a plastic cup, which was allowed to stand for 1 day. To this plantlet was sprayed 20 ml of each of the above diluted solutions.
Eight days after spraying, the number of surviving mites on a leaf of the vineless common bean was investigated, and a controlling rate was calculated according to the following equation.
Controlling rate (%)=100×{1−(number of surviving mites of treated group)/(number of surviving mites of non-treated group)}

Assay [3] has as its system cotton aphids. Briefly: Test Example 2: soil immersion treatment of cucumber, cotton aphids inoculated afterwards. The conditions noted are these: 144 h, 500 ppm test solution (5 ml + 40 ml water), aphids inoculated after 7 days, counted 6 days later, 25° C., read-out: Controlling value (%). The procedure: Into a beer cup were poured 5 ml of the test diluted solution and 40 ml of water, where a cucumber planted in a polyethylene cup and grown to develop a first true leaf was accommodated, and the soil part was subjected to immersion-treatment. The plant was retained in a greenhouse at 25° C. for 7 days, 30 cotton aphids (all stages) were inoculated on a cucumber leaf surface, the plant was further retained in a greenhouse at 25° C. for 6 days, the number of surviving worms of cotton aphids parasitized on the leaf surface was investigated, and a controlling value was calculated according to the following equation.
(§1) Controlling value (%)={1−(Cb×Tai)/(Cai×Tb)}×100
(§2) Cb is the number of worms before treatment of a non-treated group.
(§3) Cai is the number of worms at observation of a non-treated group.
(§4) Tb is the number of worms before treatment of a treated group.
(§5) Tai is the number of worms at observation of a treated group.

The subject of assay [4] is cotton aphids. Description: Test Example 1: spray test on cotton aphids parasitized on cucumber. The following applies: 144 h; 500 ppm active ingredient, sprayed on cucumber at 20 ml/cup, six days after spraying; read-out: Controlling value (%). How it is done:
On the other hand, a cucumber was planted in a polyethylene cup, and grown until a first true leaf was developed, and 30 cotton aphids were parasitized thereon. One day after, the test spray solution was sprayed to the cucumber at a ratio of 20 ml/cup. Six days after spraying, the number of cotton aphids was investigated, and a controlling value was calculated according to the following equation.
as §1, §2, §3, §4, §5

Where [5] appears, read: 500 ppm, 20 ml sprayed on common bean plantlet, female imagoes, eight days after spraying.

Like-named read-outs stand apart in the source and are kept apart here.

As for `CCCCOc1nc(SC(=O)N(C)C)ns1` [(5)], the pest or weed control at 500 ppm in assay [1] and in assay [2] (setting [5]) was at least 90% throughout.

For `C#CCOc1nc(SC(=O)N(C)C)ns1` [(7)], the pest or weed control at 500 ppm in assay [1] is at least 90%. Consider `CC#CCOc1nc(SC(=O)N(C)C)ns1` [(8)], for which the pest or weed control at 500 ppm in assay [1] is at least 90%. `CN(C)C(=O)Sc1nsc(OC2CCOCC2)n1` [(17)]: the pest or weed control at 500 ppm in assay [3], in assay [1] and in assay [2] (setting [5]) was at least 90% in each case.

For the molecule `CN(C)C(=O)Sc1nsc(OCCCn2cccn2)n1` [(19)], in assay [3], the pest or weed control at 500 ppm is at least 90%.

With `CN(C)C(=O)Sc1nsc(OCC(C)(C)C)n1` [(31)], the pest or weed control at 500 ppm in assay [1] was at least 90%. As to `CN(C)C(=O)Sc1nsc(OCCC(C)(C)C)n1` [(33)], in assay [4], the pest or weed control at 500 ppm is at least 90%. Turning to `C=CCCCOc1nc(SC(=O)N(C)C)ns1` [(34)], the pest or weed control at 500 ppm in assay [4], in assay [3] and in assay [1] was at least 90% throughout. As to `C#CCC(C)Oc1nc(SC(=O)N(C)C)ns1` (stereo not shown) [(38)], the pest or weed control at 500 ppm in assay [1] is at least 90%. Consider `C#CC(C)Oc1nc(SC(=O)N(C)C)ns1` (stereo not shown) [(39)], for which the pest or weed control at 500 ppm in assay [1] and in assay [2] (setting [5]) was at least 90% in each case.

Consider `CN(C)C(=O)Sc1nsc(OCCCCl)n1` [(49)], for which the pest or weed control at 500 ppm in assay [3] and in assay [1] was at least 90% in each case. Regarding `CN(C)C(=O)Sc1nsc(OCCCCCl)n1` [(50)], the pest or weed control at 500 ppm in assay [3] was at least 90%. As for `CN(C)C(=O)Sc1nsc(OCC(C)(C)CCl)n1` [(52)], the pest or weed control at 500 ppm in assay [1] is at least 90%. Regarding `CN(C)C(=O)Sc1nsc(OCC(F)(F)C(F)(F)F)n1` [(59)], the pest or weed control at 500 ppm in assay [4], in assay [3] and in assay [1] was at least 90% each time. In the case of `CC(Oc1nc(SC(=O)N(C)C)ns1)C(F)(F)C(F)(F)F` (stereo not shown) [(61)], the pest or weed control at 500 ppm in assay [4], in assay [3] and in assay [1] was at least 90% in each case.

As to `CN(C)C(=O)Sc1nsc(OCC(F)(F)C(F)(F)C(F)(F)F)n1` [(62)], the pest or weed control at 500 ppm in assay [4] and in assay [3] was at least 90% in each case. As to `CCC(Oc1nc(SC(=O)N(C)C)ns1)C(C)(C)C` (stereo not shown) [(64)], in assay [4], the pest or weed control at 500 ppm is at least 90%. Take `CN(C)C(=O)Sc1nsc(OCCCl)n1` [(67)]: in assay [1], the pest or weed control at 500 ppm was at least 90%.

`CN(C)C(=O)Sc1nsc(OCc2ccsc2)n1` [(74)]: the pest or weed control at 500 ppm in assay [4] was at least 90%.

`CN(C)C(=O)Sc1nsc(OCc2cccc(F)c2)n1` [(79)]: the pest or weed control at 500 ppm in assay [3] is at least 90%.

As for `CN(C)C(=O)Sc1nsc(OCc2cccc(Cl)c2Cl)n1` [(99)], the pest or weed control at 500 ppm in assay [4] is at least 90%. Take `CN(C)C(=O)Sc1nsc(OCc2c(Cl)cccc2Cl)n1` [(102)]: the pest or weed control at 500 ppm in assay [4] was at least 90%.

With `CN(C)C(=O)Sc1nsc(OCc2ccc(Cl)c(Cl)c2)n1` [(103)], the pest or weed control at 500 ppm in assay [4] was at least 90%. In the case of `CN(C)C(=O)Sc1nsc(OCc2ccc(F)c(C(F)(F)F)c2)n1` [(111)], the pest or weed control at 500 ppm in assay [1] was at least 90%. With `CN(C)C(=O)Sc1nsc(OCc2ccc(C(F)(F)F)cc2C(F)(F)F)n1` [(112)], the pest or weed control at 500 ppm in assay [1] was at least 90%. On to `CC1(C)OCC(COc2nc(SC(=O)N3CCOCC3)ns2)O1` (stereo not shown) [(119)], for which the pest or weed control at 500 ppm in assay [1] was at least 90%. With `CCCOc1nc(SC(=O)N2CCOCC2)ns1` [(120)], the pest or weed control at 500 ppm in assay [1] is at least 90%. On the same count and under the same terms, under `CCOc1nc(SC(=O)N2CCOCC2)ns1` [(122)] stands at least 90%. In the case of `CC#CCOc1nc(SC(=O)N2CCOCC2)ns1` [(125)], the pest or weed control at 500 ppm in assay [3] is at least 90%.

Regarding `O=C(Sc1nsc(OCC2CCOC2)n1)N1CCOCC1` (stereo not shown) [(127)], the pest or weed control at 500 ppm in assay [3] is at least 90%. As to `O=C(Sc1nsc(OCC2COCO2)n1)N1CCOCC1` (stereo not shown) [(129)], the pest or weed control at 500 ppm in assay [3] and in assay [2] (setting [5]) was at least 90% in each case. For the molecule `O=C(Sc1nsc(OC2COCOC2)n1)N1CCOCC1` [(130)], the pest or weed control at 500 ppm in assay [3] and in assay [2] (setting [5]) was at least 90% in each case. As to `COc1nc(SC(=O)N2CCCC2)ns1` [(135)], the pest or weed control at 500 ppm in assay [2] (setting [5]) is at least 90%. Turning to `CCOc1nc(SC(=O)N2CCCC2)ns1` [(136)], the pest or weed control at 500 ppm in assay [2] (setting [5]) is at least 90%. As for `O=C(Sc1nsc(Cl)n1)N1CCCC1` [(147)], the pest or weed control at 500 ppm in assay [3] was at least 90%. `CCOC(CCOc1nc(SC(=O)N(C)C)ns1)OCC` [(201)]: the pest or weed control at 500 ppm in assay [4], in assay [3] and in assay [1] was at least 90% throughout. `CN(C)C(=O)Sc1nsc(OCCCOc2nc(SC(=O)N(C)C)ns2)n1` [(204)]: the pest or weed control at 500 ppm in assay [4] is at least 90%. In the case of `CN(C)C(=O)Sc1nsc(OCCCCOc2nc(SC(=O)N(C)C)ns2)n1` [(206)], the pest or weed control at 500 ppm in assay [1] is at least 90%. Consider `CN(C)C(=O)Sc1nsc(OCc2ccccc2)n1` [(211)], for which the pest or weed control at 500 ppm in assay [4] and in assay [1] was at least 90% each time.

In the case of `CN(C)C(=O)Sc1nsc(OCc2ccccn2)n1` [(215)], in assay [1], the pest or weed control at 500 ppm was at least 90%. For the molecule `Cc1nn(C)c(Oc2nc(SC(=O)N(C)C)ns2)c1C` [(218)], the pest or weed control at 500 ppm in assay [3] was at least 90%. Take `CN(C)C(=O)Sc1nsc(OCCOc2nc(SC(=O)N(C)C)ns2)n1` [(225)]: the pest or weed control at 500 ppm in assay [4] was at least 90%. Consider `CN(C)C(=O)Sc1nsc(OCCOCC(F)(F)F)n1` [(232)], for which the pest or weed control at 500 ppm in assay [2] (setting [5]) was at least 90%. The same measure, in the same setting: with `COCC(C)Oc1nc(SC(=O)N(C)C)ns1` (stereo not shown) [(236)] the figure was at least 90%; with `COCCOc1nc(SC(=O)N2CCCC2)ns1` [(243)], at least 90%. With `C=CCOc1nc(SC(=O)N(C)C)ns1` [(255)], the pest or weed control at 500 ppm in assay [2] (setting [5]) is at least 90%. As for `C[C@H](Oc1nc(SC(=O)N2CCCC2)ns1)[C@H]1COC(C)(C)O1` [(262)], the pest or weed control at 500 ppm in assay [2] (setting [5]) was at least 90%. Regarding `COCC(COc1nc(SC(=O)N(C)C)ns1)OC` (stereo not shown) [(277)], the pest or weed control at 500 ppm in assay [3] was at least 90%. As for `CCCOc1nc(OC(=O)N(C)C)ns1` [comparative compound (A), reference compound], the pest or weed control at 500 ppm in assay [1] and in assay [2] was 0% each time.
